Key:
[1] = system: 26S proteasome; assay: Proteasome subcellular localization in cultured cells (immunofluorescence, cell fractionation/Western blot); format: cell-based, human; details: for proteasome translocation from the nucleus to the cytosol: amino acid starvation, substance added to starvation medium; for proteasome localization: non-stressed / well-fed cells, complete medium; for proteasome dynamics under known p38 activators: RT4 and HeLa cells
Procedure: Cells were incubated for 20 min in fractionation buffer [20 mM HEPES pH 7.3, 10 mM KCl, 5 mM ATP, 5 mM MgCl2, and protease inhibitor cocktail (Roche)], followed by the addition of Digitonin (0.01%). They were then mixed thoroughly and centrifuged at 1,000×g for 5 min. The supernatant was collected as cytosolic fraction, and the pellet was washed with fractionation buffer supplemented with NP-40 (0.05%) and centrifuged, and the pellet (nuclei) was resuspended in fractionation buffer supplemented with sodium deoxycholate (0.5%), followed by its sonication.
(§1) Cells were washed twice with ice cold PBS and scraped into lysis buffer (50 mM Tris-HCl, pH 7.4, 130 mM NaCl, 0.5% NP-40) supplemented with freshly added protease inhibitor cocktail, 5 mM ATP, 10 mM iodoacetamide, and 5 mM N-ethyl maleimide. Protein concentration was measured by the BCA assay according to the manufacturer's instructions (Pierce, Rockford, IL). 30 μg of cellular protein were resolved via SDS-PAGE, transferred to a nitrocellulose membrane and immunoblotted with the appropriate antibody.
Cells were seeded on glass cover slips for 36 h. Following the indicated treatments, they were fixed with 4% PFA for 15 min, washed with phosphate-buffered saline (PBS) and incubated in PBS containing 10% goat serum for 1 h at room temperature, followed by 2 h incubation with the indicated primary antibody. Following extensive wash with PBS, the fixed cells were incubated with the relevant secondary antibody for 1 h, washed and mounted. Images were acquired using Zeiss LSM 700 confocal microscope (Zeiss, Oberkochen, Germany). […]

[2] = system: HeLa cells; assay: Amino acids level measurement (LC-MS); format: cell-based, human; details: Torin1 treatment relative to control
Procedure: Metabolic analysis was carried out as previously described [G. M. MacKay et al., 1st Ed. (Elsevier Inc., 2015)]. Briefly, cells were rapidly washed 3 times with ice-cold PBS and extracted with an aqueous solution of 50% Methanol, and 30% Acetonitrile. Samples were centrifuged at 16,000×g for 10 min at 4° C., and the supernatants were analyzed using HPLC-MS (Q-Exactive Orbitrap Mass Spectrometer (Thermo Scientific) coupled to Thermo Scientific UltiMate 3000 HPLC system). The HPLC setup consisted of a ZIC-PHILIC column (SeQuant, 150×2.1 mm, 5 μm, Merck) with a ZIC-PHILIC guard column (SeQuant, 20×2.1 mm). The aqueous mobile phase solvent was 20 mM ammonium carbonate adjusted to pH 9.4 with 0.1% ammonium hydroxide. The organic mobile phase was acetonitrile. Amino acids and other metabolites were separated over a 15 min linear gradient from 80% organic to 80% aqueous. The column temperature was 45° C., the flow rate 200 μl/min, and the run time 27 min. All metabolites were detected across a mass range of 75-1,000 m/z using the Q-Exactive mass spectrometer at a resolution of 35,000 (at 200 m/z) with electrospray ionization and polarity switching mode. Mass accuracy obtained for all metabolites was below 5 ppm. Data were acquired with Thermo Xcalibur software. The peak areas of different amino acids were determined using Thermo TraceFinder software through which metabolites were identified by the exact mass of the singly charged ion and the known retention time on the HPLC column. Commercially available standard compounds had been analyzed before to determine ion masses and retention times on the ZIC-PHILIC column. Protein quantitation based on the Lowry method was performed for normalization. The figure presents mean+/−SD of three replicates.

[3] = system: STAT3; assay: Western blot for STAT3 phosphorylated at Tyr705; format: cell-based, human; details: Torin1 treatment
Procedure: as §1

[4] = system: HeLa and RT4 cells; assay: Cell survival assay (live/dead imaging); format: cell-based
Procedure: Data analysis was performed using the Live/Dead module of the MetaXpress software (Molecular Devices). […] Intensities were quantified using Li-Cor imager and software (Odyssey).

O=[N+]([O-])c1ccc2c(c1)S(=O)(=O)C=C2 [Stattic]
proteasome translocation from the nucleus to the cytosol [1]: prevented proteasome translocation from the nucleus to the cytosol

N[C@@H](Cc1ccc(O)cc1)C(=O)O [Tyr, 4-hydroxyphenylalanine]
proteasome translocation from the nucleus to the cytosol [1]: inhibitory effect on proteasome translocation

N[C@@H](Cc1c[nH]c2ccccc12)C(=O)O [Trp, Tryptophan]
proteasome translocation from the nucleus to the cytosol [1]: inhibitory effect on proteasome translocation

C[C@@H]1C[C@@H]([C@H](O)CC2CC(=O)NC(=O)C2)C(=O)[C@@H](C)C1 [cycloheximide]
restoration of the nuclear proteasomal pool ([1]; replenishment of amino acids after starvation, in presence of substance): did not prevent restoration of the nuclear proteasomal pool

N[C@@H](Cc1ccccc1)C(=O)O [Phe, Phenylalanine]
proteasome translocation from the nucleus to the cytosol [1]: inhibitory effect on proteasome translocation

CCC(=O)N1CCN(c2ccc(-n3c(=O)ccc4cnc5ccc(-c6cnc7ccccc7c6)cc5c43)cc2C(F)(F)F)CC1 [Torin1]
proteasome localization [1]: induced nuclear export of both 20S and 19S sub-complexes
level of amino acids [2]: gain in amino acids
STAT3 Y705 phosphorylation [3]: upregulation of Y705 phosphorylation

Ivermectin
proteasome localization [1]: cytosolic accumulation

COc1ccc(C[C@H]2NC[C@H](O)[C@H]2OC(C)=O)cc1 [anisomycin]
proteasome dynamics under known p38 activators [1]: the proteasome was locked in the nucleus
cell death under known p38 activators [4]: many of the cells died

OC[C@@H](O)[C@@H](O)[C@H](O)[C@@H](O)CO [hyperosmotic stress, Sorbitol]
proteasome dynamics under known p38 activators [1]: the proteasome was locked in the nucleus
cell death under known p38 activators [4]: many of the cells died
